These results are taken from publication doi:10.1101/2025.11.04.686469, “Discovery of Host-Directed Small Molecules with Broad Anti-Leishmanial Efficacy” (bioRxiv, 2025).

For one series, the system named is THP-1 macrophages. As to the kind of experiment: Effect of compounds on host cell viability (MTT). The class given is cell-based. The settings on record: read-out: 24h LC50; THP1 macrophages, 24-hour incubation, MTT assay (Supplemental Table 2). The gist of the method:
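Viability was read as MTT reduction: 2 h with 0.5 mg/mL, formazan dissolved in isopropanol, A560 with 670 nm background subtracted. The macrophages were PMA-differentiated THP-1 cells (150 nM, 72 h), treated 24 h at 1–50 μM or, for some compounds, 72 h at 1–300 μM.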
Background: Tetrazolium assays rely on reduction of a dye to a coloured formazan, in cell work by metabolically active cells.

In series [1] the test system is intracellular L. donovani amastigotes. Nature of the series: Luminescent-based evaluation of intracellular anti-leishmanial activity in THP-1 macrophages. The settings on record: intracellular Leishmania donovani in THP1 macrophages, luminescence assay (Supplemental Table 2); read-out: Lum IC50. The format is cell-based, Leishmania donovani. The essentials: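 PMA-differentiated THP-1 macrophages (150 nM, 72 h) were infected 18 h with firefly luciferase-expressing L. donovani LV82 promastigotes, then washed. Infected cells were treated with compounds at 0.1-10 μM for 72 h. Surviving intracellular amastigotes were quantified by firefly luciferase luminescence after cell lysis and 10 min substrate incubation at room temperature.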

SMILES strings stand for the structures. pIC50: −log10 of the molar value. Where only a bound is given, the exact number is not on record here.

A word on the pIC50: it is −log10 of the IC50, conventionally taken in molar units.

Take `NCC(=O)Nc1ccc(-n2nc(C(F)(F)F)cc2C2CCCCC2)cc1` [Compound 341]: the CC50 with THP-1 macrophages was 26.5 µM. Also, the pIC50 in series [1] is 5.40.

As for `CC(C)C#Cc1ccc(-c2cc(C(F)(F)F)nn2-c2ccc([N+](=O)[O-])cc2)cc1` [Compound 94], the CC50 with THP-1 macrophages amounted to 29 µM. In addition, in series [1], the pIC50 was below 5.00.

Take `FC(F)(F)c1ccc(-c2ccc(-c3cc(C(F)(F)F)nn3-c3ccc(NCCCCOc4ccccc4)cc3)cc2)cc1` [Compound 68]: in the series with THP-1 macrophages, the CC50 worked out at 34.7 µM. For the same molecule, the pIC50 in series [1] is below 5.00.

Turning to `FC(F)(F)c1cc(C2CCCCC2)n(-c2ccc(NC3CCNCC3)cc2)n1` [Compound 339], the CC50 with THP-1 macrophages was determined as 18.2 µM. In addition, the pIC50 in series [1] was 5.77.

`CC(C)(C)OC(=O)NC1CCN(c2ccc(-n3nc(C(F)(F)F)cc3-c3ccc(-c4ccc(C(F)(F)F)cc4)cc3)cc2)CC1` [Compound 72]: in the series on THP-1 macrophages, the CC50 was above 50 µM. For the same molecule, in series [1], the pIC50 is below 5.00.

Turning to `CC(C)(C)OC(=O)NC1CCN(c2ccc(-n3nc(C(F)(F)F)cc3C3CCCCC3)cc2)C1` (stereo not drawn) [Compound 230], the CC50 with THP-1 macrophages was determined as 9.5 µM. The pIC50 in series [1] was below 5.00.

With `Oc1ccc(CNC2CCN(c3ccc(-n4nc(C(F)(F)F)cc4-c4ccc(-c5ccc(C(F)(F)F)cc5)cc4)cc3)C2)cc1` (stereo not drawn) [Compound 18], in the series on THP-1 macrophages, the CC50 was found to be 24.5 µM. In addition, the pIC50 in series [1] was 5.40.

`N#Cc1ccc(CN2CCC(Nc3ccc(-n4nc(C(F)(F)F)cc4C4CCCCC4)cc3)CC2)cc1` [Compound 323]: the CC50 with THP-1 macrophages is 28.3 µM. Besides, the pIC50 in series [1] was 5.05.

For `CC(C)c1cc(C(F)(F)F)nn1-c1ccc(NC2CCNC2)cc1` (stereo not drawn) [Compound 315], the CC50 in the series with THP-1 macrophages worked out at 25.1 µM. Moreover, the pIC50 in series [1] is 5.48.

Take `FC(F)(F)c1ccc(-c2ccc3nc[nH]c3c2)cc1` [Compound 135]: the CC50 in the series with THP-1 macrophages was above 50 µM. Besides, the pIC50 in series [1] is below 5.00.

Turning to `CC(C)(C)OC(=O)N[C@@H]1CCN(c2ccc(-n3nc(C(F)(F)F)cc3-c3ccc(-c4ccc(C(F)(F)F)cc4)cc3)cc2)C1` [Compound 127], the CC50 in the series with THP-1 macrophages was above 50 µM. In series [1], the pIC50 was below 5.00.

`FC(F)(F)c1cc(C2CCCCC2)n(-c2ccc(NC3CN(Cc4ccccc4)C3)cc2)n1` [Compound 395]: in the series on THP-1 macrophages, the CC50 was 37.4 µM. Also, in series [1], the pIC50 was 5.12.

In the case of `O=[N+]([O-])c1ccc(-c2cc(C(F)(F)F)nn2-c2ccc(Br)cc2)cc1` [Compound 143], the CC50 in the series with THP-1 macrophages is above 50 µM. Further, the pIC50 in series [1] is below 5.00.

Take `FC(F)(F)c1cc(C2CC2)n(-c2ccc(NC3CCNC3)cc2)n1` (stereo not drawn) [Compound 272]: the CC50 with THP-1 macrophages is 17.2 µM. Further, the pIC50 in series [1] was 5.25.

With `NC1CCN(c2ccc(-n3nncc3-c3ccc(-c4ccc(C(F)(F)F)cc4)cc3)cc2)C1` (stereo not drawn) [Compound 137], the CC50 in the series with THP-1 macrophages is 7.3 µM. For the same molecule, in series [1], the pIC50 is 5.36.

Regarding `NC1CCN(c2ccc(-n3nc(C(F)(F)F)cc3-c3ccc(-c4ccc(C(F)(F)F)cc4)cc3)cc2)CC1` [Compound 73], in the series on THP-1 macrophages, the CC50 is 4.8 µM. Moreover, in series [1], the pIC50 was 5.57.

Regarding `Nc1ccc(-n2cc(C(F)(F)F)nc2-c2ccc(-c3ccc(C(F)(F)F)cc3)cc2)cc1` [Compound 156], the CC50 with THP-1 macrophages was determined as 20.8 µM. Moreover, the pIC50 in series [1] was 5.24.

`CC(C)C#Cc1ccc(-c2cc(C(F)(F)F)nn2-c2ccc(N3CCC(NCc4cccc(F)c4)C3)cc2)cc1` (stereo not drawn) [Compound 100]: in the series with THP-1 macrophages, the CC50 was above 50 µM. Moreover, in series [1], the pIC50 is below 5.00.

Consider `FC(F)(F)c1cc(C2CCCCC2)n(-c2ccc(NC3CCN(Cc4ccccc4)C3)cc2)n1` (stereo not drawn) [Compound 356], for which the CC50 in the series with THP-1 macrophages turned out to be 15.5 µM. Moreover, the pIC50 in series [1] was 5.70.

With `FC(F)(F)c1cc(C2CCCCC2)n(-c2ccc(OC3CCN(Cc4ccccc4)CC3)cc2)n1` [Compound 371], in the series on THP-1 macrophages, the CC50 was above 50 µM. Also, the pIC50 in series [1] was 5.05.

As for `Oc1ccc(CNC2CCN(c3ccc(-n4nc(C(F)(F)F)cc4C4CCCCC4)cc3)C2)cc1` (stereo not drawn) [Compound 362], in the series on THP-1 macrophages, the CC50 turned out to be 20 µM. Further, in series [1], the pIC50 was 5.66.

Turning to `NCC(=O)NC1CCN(c2ccc(-n3nc(C(F)(F)F)cc3-c3ccc(-c4ccc(C(F)(F)F)cc4)cc3)cc2)C1` (stereo not drawn) [Compound 119], the CC50 in the series on THP-1 macrophages was 37.2 µM. The pIC50 in series [1] was below 5.00.

Turning to `FC(F)(F)Oc1ccc(-n2nc(C(F)(F)F)cc2-c2ccc(-c3ccc(C(F)(F)F)cc3)cc2)cc1` [Compound 186], in the series with THP-1 macrophages, the CC50 is above 50 µM. The pIC50 in series [1] was below 5.00.

Consider `CC(=O)NCCNC1CCN(c2ccc(-n3nc(C(F)(F)F)cc3C3CCCCC3)cc2)CC1` [Compound 419], for which the CC50 in the series on THP-1 macrophages is 21.6 µM. Also, the pIC50 in series [1] is 5.57.

Take `NC1CCN(c2ccc(-n3nc(C(F)(F)F)c4ccc(-c5ccc(C(F)(F)F)cc5)cc43)cc2)C1` (stereo not drawn) [Compound 141]: in the series with THP-1 macrophages, the CC50 came out at 7.7 µM. Besides, in series [1], the pIC50 was 5.44.

Consider `NCCCCCN1CCC(Oc2ccc(-n3nc(C(F)(F)F)cc3C3CCCCC3)cc2)CC1` [Compound 422], for which, in the series on THP-1 macrophages, the CC50 amounted to 6.1 µM. Moreover, in series [1], the pIC50 is 5.60.

Consider `FC(F)(F)c1ccc(-c2ccc(-c3cc(C(F)(F)F)nn3-c3ccc(OC4CCNC4)cc3)cc2)cc1` (stereo not drawn) [Compound 144], for which the CC50 in the series on THP-1 macrophages came to 5.4 µM. Further, the pIC50 in series [1] is below 5.00.

Consider `O=[N+]([O-])c1ccc(-n2nc(C(F)(F)F)cc2-c2ccc(-c3ccc(S(F)(F)(F)(F)F)cc3)cc2)cc1` [Compound 103], for which, in the series on THP-1 macrophages, the CC50 is above 50 µM. The pIC50 in series [1] is below 5.00.

In the case of `COc1ccc(-c2cc(C(F)(F)F)nn2-c2ccc(Br)cc2)cc1OC` [Compound 251], in the series on THP-1 macrophages, the CC50 is above 50 µM. Besides, the pIC50 in series [1] is below 5.00.

As for `COc1ccc(-n2nc(C(F)(F)F)cc2-c2ccc(-c3ccc(C(F)(F)F)cc3)cc2)c(C)c1` [Compound 187], in the series on THP-1 macrophages, the CC50 was above 50 µM. The pIC50 in series [1] is below 5.00.

Turning to `NC1CCN(c2ccc(-n3nc(C(F)(F)F)cc3C3CCCCC3)cc2)CC1` [Compound 324], the CC50 with THP-1 macrophages was 27.5 µM. The pIC50 in series [1] is 5.72.

`O=[N+]([O-])c1ccc(-n2cnc3cc(Br)ccc32)cc1` [Compound 139]: the CC50 in the series on THP-1 macrophages was above 50 µM. For the same molecule, the pIC50 in series [1] is below 5.00.

As to `O=C(c1ccc(-n2cc(C(F)(F)F)nc2-c2ccc(-c3ccc(C(F)(F)F)cc3)cc2)c(F)c1)N1CCC(NCc2cccc(F)c2)C1` (stereo not drawn) [Compound 178], the CC50 with THP-1 macrophages is above 50 µM. The pIC50 in series [1] is below 5.00.

As for `NC1CCN(c2ccc(-n3nncc3-c3ccc(C(F)(F)F)cc3)cc2)C1` (stereo not drawn) [Compound 204], the CC50 with THP-1 macrophages is 37.2 µM. Besides, the pIC50 in series [1] is below 5.00.

With `NC1CCN(C(=O)c2ccc(-n3cc(C(F)(F)F)nc3-c3ccc(-c4ccc(C(F)(F)F)cc4)cc3)c(F)c2)C1` (stereo not drawn) [Compound 199], the CC50 in the series on THP-1 macrophages is 9.4 µM. In addition, the negative logarithm of the IC50 (pIC50) in series [1] is 5.89.

As to `CC(=O)NCCCNC1CCN(c2ccc(-n3nc(C(F)(F)F)cc3C3CCCCC3)cc2)CC1` [Compound 421], the CC50 in the series with THP-1 macrophages worked out at 19 µM. The pIC50 in series [1] was 5.82.

As for `FC(F)(F)c1cn(-c2ccc(Br)cc2)c(-c2ccc(-c3ccccc3)cc2)n1` [Compound 81], the CC50 in the series with THP-1 macrophages is above 50 µM. Further, in series [1], the pIC50 is below 5.00.

For `Nc1ccc(-c2cc(C(F)(F)F)nn2-c2ccc(-c3ccc(C(F)(F)F)cc3)cc2)cc1` [Compound 152], in the series on THP-1 macrophages, the CC50 turned out to be 43.6 µM. For the same molecule, the pIC50 in series [1] is below 5.00.

With `FC(F)(F)c1ccc(-c2nc(C(F)(F)F)cn2-c2ccc(NC3CCNC3)cc2)cc1` (stereo not drawn) [Compound 296], the CC50 in the series on THP-1 macrophages is 12.9 µM. Further, the pIC50 in series [1] is 5.52.
